Patent US8414871B2, “Controlled releases of actives in skin” (priority 2002, dated 2013)

Experiments:
[1] = Solute binding efficiency of nanospheres (HPLC); assay type: physicochemical
Method: The concentrations of the solutes were assayed by high-performance liquid chromatography (HPLC) using a Waters 2695 HPLC system equipped with UV/vis detector (Waters 2487, Dual 1 Absorbance Detector). Chromatographic separations were achieved using a RP-C18 column (Perkin-Elmer Brownlee Analytical C-18 column, 33 mm×4.6 mm) at 25° C. […] The mobile phase was delivered at a flow rate of 1 mL/min. […] Standard calibration samples were prepared at concentrations ranging from 1 to 50 μg/mL for all solutes. […] In addition, the specificity was determined by comparing the results obtained in the analysis of placebo supernatant, containing only nanospheres, with those obtained in the analysis of all standard solutions of the solutes and no interference from nanospheres was observed. To determine the solute binding efficiency, a predetermined aliquot of the purified nanosphere-solute complex suspension was withdrawn and freeze-dried, and the dry residue was accurately weighted before thoroughly dissolving in the extraction solvent. […] Solutes complexation by the nanospheres was characterized by the following ratio: [formula] Solutions of each solute in propylene glycol (PG) were prepared by stirring an excess of the molecule in PG at room temperature for 24 h. The samples were filtered through 0.22%μm PVDF syringe filters (Millipore, Bedford, Mass.), and the filtrates were used for all subsequent characterizations and experiments. For passive permeation experiments, the equal concentration (confirmed using RP-HPLC) of all solutes in both PG and nanospheres was achieved by subsequent dilution of either PG-solute solution with PG or NSP-solute formulation with PBS.

[2] = Dye penetration into skin layers, fluorescent microscopy of cryosectioned skin after passive permeation
Method: Human skin: The full thickness dermatomed (˜500 μm) human skin derived from the abdominal regions of female Caucasian cadavers were obtained from AlloSource (Englewood, Colo.) and stored at −80° C. Just before each experiment, the skin was allowed to thaw to room temperature and then used immediately for in vitro transport studies.
The receptor compartments were filled with 0.155 M phosphate buffered saline (pH 7.4, 5.1 mL), which was stirred at 600 rpm. The fluid in each receptor compartment was maintained at 37±0.5° C. by the use of a thermostatic water pump (Haake DC10, Karlsruhe, Germany) that circulated water through the jacket surrounding each main chamber. […] The skins were initially left in the Franz cells for 1 h in order to facilitate hydration of the membranes.
In all experiments, the donor compartment of the sampling port of each Franz cell was covered with a taught layer of Parafilm®, and the whole set up was roofed with aluminum foil to prevent the dye bleaching. Each permeation experiment was conducted in sextuplicate or quadruplicate (in case of time-dependency experiments).
At the end of the permeation experiment, the excess formulation was removed from the skin surface, skin sections were detached from the diffusion cells, washed three times with PBS, and dried gently with delicate task wipers (Kimwipes). The skins were frozen at −20° C., and 0.2×0.5 cm piece from the treated area was cut out and imbedded in optimal cutting temperature compound (OCT). A cryostat (Leica Cryostat CM 3050S, Wetzlar, Germany) was used to prepare the cross-section of full skin perpendicular to the skin surface. Nine to twelve vertical sections with a thickness of 20 μm each were obtained and stored at −4° C. till analyzed microscopically.
Fluorescent microscopy. Skin sections were subjected to both fluorescent and phase-contrast microscopy using Olympus CK40 microscope equipped with a UV source and filters for fluorescent measurement. Image capture and analysis were carried out using Olympus Microsuite™ B35V program. […] Images were recorded setting the camera integration time of 500 ms. The same parameters were used for imaging all samples and no corrections for the background fluorescence were made.
Quantitative analysis of dye penetration into skin was obtained by calculating pixel intensities from fluorescence measurements of skin sections. Image analysis was carried out for the epidermis (EP; consisting of stratum corneum and the viable epidermis), superficial dermis (SD) and lower dermis (LD) as schematically represented in FIG. 5. The superficial dermis is defined as the region measuring around 100 μm below the epidermis and the lower dermis is the remaining portion of the dermis below the superficial dermis.
H&E staining of the skin section (FIG. 5) was used to define the above layers for which quantitative analysis of dyes penetration was carried out.

SMILES | final concentration of solutes in nanospheres solutions [1] [µg/mL] | change in dye penetration from EP to LD [2] | decrease of dye penetration from EP into the dermis [2] | decrease of fluorescence intensities from EP to LD ([2]; 24 hrs, NSP-dye formulations) [fold] | PE (penetration effect), fluorescence in epidermis ([2]; female, human, 24 h, pH 7.4) [ABU]
COc1cc(/C=C/C(=O)CC(=O)/C=C/c2ccc(O)c(OC)c2)ccc1O [curcumin] | 190 |  |  |  | 
CCCCCCCCCCCC(=O)Nc1ccc2c(c1)C(=O)OC21c2ccc(O)cc2Oc2cc(O)ccc21 [DAF, 5-Dodecanoylaminofluorescein] | 180 | increase | about two and a half fold |  | 
CCN(CC)c1ccc2nc3c4ccccc4c(=O)cc-3oc2c1 [NR, Nile Red] | 200 |  | about five fold | 2.5 | 48.6±1.3
